# How the values were obtained:
# [1] = system: differentiated L6-myotubes; experiment: cAMP production relative to isoprenaline (Biological example 2 of WO 2019/053427); assay type: cell-based; conditions: 0.25 h, compound at 10 μM, activity relative to isoproterenol at 10 μM
# In short: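 Differentiated L6 myotubes stimulated 15 min with test compound or isoprenaline, each at final 1×10^−5 M, in HBSS with 1% BSA, 5 mM HEPES, 1 mM IBMX, pH 7.4. cAMP production by the compound expressed relative to that induced by the same concentration of isoprenaline.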
# [2] = system: differentiated L6-myotubes; experiment: Glucose uptake screen (Biological example 1 of WO 2019/053427); assay type: cell-based; conditions: compound at 10 μM, activity relative to isoproterenol at 10 μM, read-out: Biological example 1 of WO 2019/053427 (GU)
# In short: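 Rat L6 myoblasts were differentiated into myotubes over 7 days in 2% FBS, then serum-starved overnight. Cells were stimulated with 1×10^−5 M compound plus β2 antagonist ICI-118551 for 1 h 40 min and re-dosed for 20 min in glucose-free medium. Uptake of 50 nM ^3H-2-deoxyglucose over 10 min was counted after NaOH lysis.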
Structure (SMILES),Emax at 10 µM [1] [%],Emax at 10 µM [2] [%]
"O[C@@H](CNC[C@H]1CC[C@@H](OCc2ccccc2)CC1)c1cccc(F)c1 [Compound 262, (R)-1-(m-fluorophenyl)-2-({[(1s,4S)-4-(benzyloxy)cyclohexyl]methyl}amino)-1-ethanol]",< 25,25 to 50
"CC(C)(C)NC[C@H](O)c1ccc(F)cc1O [Compound 80, (R)-2-(tert-butylamino)-1-(4-fluoro-2-hydroxyphenyl)-1-ethanol]",< 25,50 to 75
"O[C@@H](c1cccc(F)c1)C12CCC(COc3ccc(Cl)cc3)(CC1)N2 [Compound 440, (S)-{4-[(p-chlorophenoxy)methyl]-7-azabicyclo[2.2.1]hept-1-yl}(m-fluorophenyl)methanol]",< 25,> 75
"CC(C)(C)NC[C@H](O)c1ccc(F)c(N)c1F [Compound 149, (R)-1-(3-amino-2,4-difluorophenyl)-2-(tert-butylamino)-1-ethanol]",25 to 50,> 75
"CCC[C@H]1CCC[C@H]([C@H](O)c2cccc(O)c2)N1 [Compound 64, (R)-[(2R,6S)-6-propyl-2-piperidyl](m-hydroxyphenyl)methanol]",< 25,> 75
"O[C@@H](CNCCC[C@H]1CC[C@H](O)CC1)c1cncc(F)c1 [Compound 305, (R)-1-(5-fluoro-3-pyridyl)-2-{3-[(1r,4S)-4-hydroxycyclohexyl]propylamino}-1-ethanol]",< 25,25 to 50
"CC12CC(C1)[C@@H]([C@H](O)c1cccc(F)c1)N2 [Compound 188, (R)-{(S)-1-methyl-2-azabicyclo[2.1.1]hex-3-yl}(m-fluorophenyl)methanol]",< 25,< 25
"COC(=O)[C@H]1CC[C@@H](C(C)(C)NC[C@H](O)c2cccc(F)c2)CC1 [Compound 328, (1S,4s)-8-[(R)-2-(m-fluorophenyl)-2-hydroxyethylamino]-7-methoxy-p-menthan-7-one]",< 25,> 75
"CO[C@@H]1CCC[C@H](C(C)(C)NC[C@H](O)c2cncc(F)c2)C1 [Compound 257, (R)-2-{1-[(1S,3R)-3-methoxycyclohexyl]-1-methylethylamino}-1-(5-fluoro-3-pyridyl)-1-ethanol]",< 25,50 to 75
"CC(C)(C[C@H]1CC[C@@H](NS(C)(=O)=O)CC1)NC[C@H](O)c1cccc(C#N)n1 [Compound 422, 6-[(S)-2-{1,1-dimethyl-2-[(1s,4R)-4-(mesylamino)cylcohexyl]ethylamino}-1-hydroxyethyl]-2-pyridinecarbonitrile]",< 25,50 to 75
"O[C@H](c1cncc(F)c1)C12CCC(COCc3ccc(OC(F)(F)F)cc3)(CC1)N2 [Compound 490, (R)-(5-fluoro-3-pyridyl)(4-{[(p-trifluoromethoxyphenyl)methoxy]methyl}-7-azabicyclo[2.2.1]hept-1-yl)methanol]",< 25,50 to 75
"CC(C)(C[C@H]1CC[C@@H](NS(=O)(=O)C(F)(F)F)CC1)NC[C@H](O)c1cccc(F)c1 [Compound 493, (R)-2-{1,1-dimethyl-2-[(1s,4S)-4-(trifluoromesylamino)cyclohexyl]ethylamino}-1-(m-fluorophenyl)-1-ethanol]",< 25,25 to 50
"CC(C)(C[C@H]1CC[C@H](NS(C)(=O)=O)CC1)NC[C@H](O)c1cccc(C#N)n1 [Compound 426, 6-[(S)-2-{1,1-dimethyl-2-[(1r,4S)-4-(mesylamino)cyclohexyl]ethylamino}-1-hydroxyethyl]-2-pyridinecarbonitrile]",< 25,> 75
"CC1(C)CC[C@H]([C@H](O)c2ccc(F)cc2)N1 [Compound 173, (R)-[(R)-5,5-dimethyl-2-pyrrolidinyl](p-fluorophenyl)methanol]",< 25,50 to 75
"CC(=O)N(Cc1ccccc1)[C@H]1CC[C@@H](C[C@@H]2CC[C@H]([C@H](O)c3cccc(F)c3)N2)CC1 [Compound 479, N-[(1R,4s)-4-({(2S,5R)-5-[(S)-(m-fluorophenyl)hydroxymethyl]-2-pyrrolidinyl}methyl)cyclohexyl]-N-benzylacetamide]",< 25,< 25
"O[C@@H](c1cccc(F)c1)C12CCC(COCc3ccc(F)cc3)(CC1)N2 [Compound 438, (S)-(m-fluorophenyl)(4-{[(p-fluorophenyl)methoxy]methyl}-7-azabicyclo[2.2.1]hept-1-yl)methanol]",< 25,< 25
"CCCC1(CCC)CC[C@H]([C@H](O)c2cccc(F)c2)N1 [Compound 159, (R)-[(R)-5,5-dipropyl-2-pyrrolidinyl](m-fluorophenyl)methanol]",< 25,50 to 75
"CN(C)S(=O)(=O)[C@H]1CC[C@@H](CC(C)(C)NC[C@H](O)c2cncc(F)c2)CC1 [Compound 471, (R)-2-{1,1-dimethyl-2-[(1s,4S)-4-(dimethylaminosulfonyl)cyclohexyl]ethylamino}-1-(5-fluoro-3-pyridyl)-1-ethanol]",50 to 75,> 75
"CCCCNCC(O)c1ccc(O)c(Cl)c1 (stereo not shown) [Compound 20, 2-(butylamino)-1-(3-chloro-4-hydroxyphenyl)-1-ethanol]",< 25,25 to 50
"O[C@H](c1cccc(F)c1)C12CCC(C/C=C/c3ccccc3)(CC1)N2 [Compound 534, (R)-{4-[(E)-3-phenyl-2-propenyl]-7-azabicyclo[2.2.1]hept-1-yl}(m-fluorophenyl)methanol]",< 25,> 75
"COC(=O)[C@H]1CC[C@H](CCC(C)(C)NC[C@H](O)c2cncc(F)c2)CC1 [Compound 342, methyl (1R,4r)-4-{3-[(R)-2-(5-fluoro-3-pyridyl)-2-hydroxyethylamino]-3-methylbutyl}cyclohexanecarboxylate]",< 25,> 75
"CO[C@H]1CC[C@H](CC(C)(C)NC[C@H](O)c2cccc(F)c2)CC1 [Compound 249, (R)-2-{1,1-dimethyl-2-[(1r,4R)-4-methoxycyclohexyl]ethyl-amino}-1-(m-fluorophenyl)-1-ethanol]",< 25,> 75
"Cc1c(F)cccc1[C@@H](O)CNC(C)(C)C [Compound 150, (R)-2-(tert-butylamino)-1-(3-fluoro-2-tolyl)-1-ethanol]",25 to 50,> 75
"CCC[C@H]1CCC[C@H]([C@@H](O)c2cccc(Cl)c2)N1 [Compound 129, (S)-[(2R,6S)-6-propyl-2-piperidyl](m-chlorophenyl)methanol]",< 25,25 to 50
"CC(C)(C[C@H]1CC[C@H](NS(=O)(=O)C2CC2)CC1)NC[C@H](O)c1cccc(F)c1 [Compound 496, (R)-2-{1,1-dimethyl-2-[(1r,4R)-4-(cyclopropylsulfonylamino)cyclohexyl]ethylamino}-1-(m-fluorophenyl)-1-ethanol]",< 25,50 to 75
"CO[C@H]1CC[C@H](CCCNC[C@H](O)c2cncc(F)c2)CC1 [Compound 261, (R)-1-(5-fluoro-3-pyridyl)-2-{3-[(1r,4S)-4-methoxycyclohexyl]propyl-amino}-1-ethanol]",< 25,< 25

# Source: US20260256751A1, “COMBINATION OF BETA-2-ADRENERGIC RECEPTOR AGONISTS AND GLP-1 RECEPTOR AGONISTS FOR USE IN TREATING HYPERGLYCAEMIA” (ATROGI AB, priority 2023, published 2026)
